Consider 30 compounds from PubChem BioAssay (NCI).

“And” between values parts separate entries of the source, which are not always exact repeats. Equal entries are not always repeated.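 Growth conditions: 96-well plates. Treatment: test compound, 48 hours, 5 concentrations. Analysis: linear interpolation between bracketing concentrations; unreached endpoints set to highest concentration. Here, GI50 denotes the concentration required for 50% inhibition of growth. Definition used: TGI = concentration required for complete inhibition of growth.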

For the first test, the system named is MALME-3M melanoma. Description: NCI tumour cell line growth inhibition, 48 h.
With `Nc1nc(CCl)nc(Nc2ccccc2)n1`, the TGI came out at 33.7 µM.

For the compound `CN[C@@H](C)[C@H](NC)c1ccccc1`, the TGI is > 100 µM.

For the compound `O=S1OC2(c3ccccc3-c3ccccc32)c2ccccc21` (configuration not stated), the TGI was > 100 µM.

Turning to `CCOC(=N)CC(=O)Nc1cccc(C)c1C`, the TGI is > 100 µM.

In a further test the test system is CAKI-1 renal. Description: NCI tumour cell line growth inhibition, 48 h.
Turning to `COc1cc2ccc3c4cc(OC)c(OC(C)C)cc4cnc3c2cc1OC`, the TGI is > 100 µM.

Take `C1C[OH+]CCNCC[OH+]CC[OH+]CCN1.[Cl-].[Pt+4]`: the GI50 is > 100 µM and the TGI was > 100 µM.

`CC(=O)c1sc(-c2nc(C)c(C(=O)/C=C\c3ccc(/C=C\C(=O)c4sc(-c5nc(C)c(C(C)=O)s5)nc4C)cc3)s2)nc1C`: the TGI was > 100 µM.

`COC(=O)/C(C)=C/[N+](=O)[O-]` gave a TGI of 8.14 µM.

In turn, `Cc1ccc(C2(O)CC(c3ccc([N+](=O)[O-])o3)=NN2C(=O)COc2ccc(Cl)cc2)cc1` (configuration not stated) registered a TGI of 67.5 µM.

On to `CC1=NN(C(=O)CC(=O)N(C(=O)c2ccccc2Cl)c2ccc(C)cc2)C(=O)C1N=Nc1ccc([N+](=O)[O-])cc1` (configuration not stated), for which the TGI was > 100 µM.

`COc1cccc(-n2c3nc(=O)n(C)c(=O)c-3nc3ccccc32)c1`: the TGI is > 100 µM.

`CC(C)(C=O)CC(C#N)/C(=N\NC(N)=O)C(=O)Nc1ccccc1C(N)=O` (configuration not stated): the TGI was > 100 µM.

Regarding `Cc1cc(C)c(C2[C@H]3C(=O)N(c4ccc(Cc5ccc(N6C(=O)[C@@H]7ON(c8ccccc8)C(c8c(C)cc(C)cc8C)[C@@H]7C6=O)cc5)cc4)C(=O)[C@H]3ON2c2ccccc2)c(C)c1` (some centres not stated), the TGI is > 100 µM.

`COC(=O)OCC1OC(N2C(=O)NC(=O)C(Br)C2N=[N+]=[N-])CC1OC(=O)OC` (configuration not stated): the TGI is > 100 µM.

As for `CC12CCCCC1(C)C2Sc1ccccc1` (configuration not stated), the TGI is > 100 µM.

Take `C[C@@]12CCCc3coc(c31)C(=O)c1cc3c(cc12)C(=O)C=CC3=O`: the GI50 is > 1 µM; the TGI was > 1 µM and 28.5 µM.

For `COc1cc(C)c2c(c1C)OC(=O)c1c(C)c(Cl)c(O)c(C=O)c1O2`, the TGI is > 100 µM.

As for `C=CCNC(=O)N(CCC)CCCCC(NC(C)=O)C(=O)NCc1ccccc1` (configuration not stated), the TGI is > 100 µM.

`COC(=O)/C(C=O)=C/Sc1ccccc1` showed a TGI of 62 µM.

For the compound `Nc1ccn(C2(CO)C=C(CO)C(O)C2O)c(=O)n1` (configuration not stated), the TGI was > 25.8 µM.

Take `CC1(C)O/C(=C\c2ccccc2)C(=O)/C(=C/c2ccccc2)O1`: the TGI was > 100 µM.

For the compound `O=c1[nH]c2cc(Cl)ccc2nc1/C(=N\O)C(O)c1ccc(Cl)cc1Cl` (configuration not stated), the TGI was > 100 µM.

With `CC(C)CCCC(C)[C@H]1CCC2[C@H]3C(CC[C@@]21C)[C@@]1(C)CCC=C[C@]12C[C@@H]2[C@@H]3O` (some centres not stated), the TGI was > 100 µM.

Take `O=C(Nc1cc(Cl)ccc1Cl)C(=O)C(c1cnc2ccccc2n1)[N+](=O)[O-]` (configuration not stated): the TGI was > 100 µM.

`COC(=O)CCC(=O)CC1CC(=O)C2CCCN12` (configuration not stated): the TGI is > 100 µM.

As to `Nc1nc(CCl)nc(Nc2ccccc2)n1`, the TGI turned out to be 24.8 µM.

Take `CN[C@@H](C)[C@H](NC)c1ccccc1`: the TGI is > 100 µM.

As to `CCOC(=N)CC(=O)Nc1cccc(C)c1C`, the TGI is > 100 µM.

A further test relates to SK-OV-3 ovarian. Nature of the test: NCI tumour cell line growth inhibition, 48 h.
As to `COc1cc2ccc3c4cc(OC)c(OC(C)C)cc4cnc3c2cc1OC`, the TGI is > 100 µM.

Regarding `CN1NC(=Nc2ccccc2)Sc2c1cnn(-c1ccccc1)c2=O`, the TGI was > 100 µM.

Consider `C1C[OH+]CCNCC[OH+]CC[OH+]CCN1.[Cl-].[Pt+4]`, for which the GI50 was > 100 µM and the TGI is > 100 µM.

For `CC(=O)c1sc(-c2nc(C)c(C(=O)/C=C\c3ccc(/C=C\C(=O)c4sc(-c5nc(C)c(C(C)=O)s5)nc4C)cc3)s2)nc1C`, the TGI is > 100 µM.

Compound `COC(=O)/C(C)=C/[N+](=O)[O-]` showed a TGI of 33.4 µM.

In the case of `Cc1ccc(C2(O)CC(c3ccc([N+](=O)[O-])o3)=NN2C(=O)COc2ccc(Cl)cc2)cc1` (configuration not stated), the TGI is > 100 µM.

Consider `CC1=NN(C(=O)CC(=O)N(C(=O)c2ccccc2Cl)c2ccc(C)cc2)C(=O)C1N=Nc1ccc([N+](=O)[O-])cc1` (configuration not stated), for which the TGI was 69.6 µM.

For `COc1cccc(-n2c3nc(=O)n(C)c(=O)c-3nc3ccccc32)c1`, the TGI is > 100 µM.

For the compound `CC(C)(C=O)CC(C#N)/C(=N\NC(N)=O)C(=O)Nc1ccccc1C(N)=O` (configuration not stated), the TGI is > 100 µM.

On to `Cc1cc(C)c(C2[C@H]3C(=O)N(c4ccc(Cc5ccc(N6C(=O)[C@@H]7ON(c8ccccc8)C(c8c(C)cc(C)cc8C)[C@@H]7C6=O)cc5)cc4)C(=O)[C@H]3ON2c2ccccc2)c(C)c1` (some centres not stated), for which the TGI was > 100 µM.

For `COC(=O)OCC1OC(N2C(=O)NC(=O)C(Br)C2N=[N+]=[N-])CC1OC(=O)OC` (configuration not stated), the TGI was > 100 µM.

Take `CC12CCCCC1(C)C2Sc1ccccc1` (configuration not stated): the TGI is > 100 µM.

With `CCCCOC(=O)NC(=O)c1cn(CCCOC(=O)NCCCCCCNC(=O)OCCCn2cc(C(=O)NC(=O)OCCCC)c(=O)[nH]c2=O)c(=O)[nH]c1=O`, the TGI was > 100 µM.

`C[C@@]12CCCc3coc(c31)C(=O)c1cc3c(cc12)C(=O)C=CC3=O`: the GI50 is > 100 µM and the TGI is > 100 µM.

`COc1cc(C)c2c(c1C)OC(=O)c1c(C)c(Cl)c(O)c(C=O)c1O2`: the TGI worked out at 65 µM.

Consider `C=CCNC(=O)N(CCC)CCCCC(NC(C)=O)C(=O)NCc1ccccc1` (configuration not stated), for which the TGI was > 100 µM.

Take `COC(=O)/C(C=O)=C/Sc1ccccc1`: the TGI came out at 88.5 µM.

`Nc1ccn(C2(CO)C=C(CO)C(O)C2O)c(=O)n1` (configuration not stated): the TGI was > 25.8 µM.

As to `C=C1C[C@]23CCC4C(C)(C)C(=O)CC[C@]4(C)C2C[C@H]1C(O)C3=O` (some centres not stated), the TGI is > 75 µM.

As for `CC1(C)O/C(=C\c2ccccc2)C(=O)/C(=C/c2ccccc2)O1`, the TGI was > 100 µM.

With `O=C1CC2C(=O)N(Cc3ccccc3)C1C=C2S(=O)(=O)c1ccccc1` (configuration not stated), the TGI was > 100 µM.

Take `N.N.N.N.[Cl-].[Co+3].[N-]=[N+]=[N-].[N-]=[N+]=[N-]`: the GI50 was > 100 µM and the TGI was > 100 µM.

Turning to `O=c1[nH]c2cc(Cl)ccc2nc1/C(=N\O)C(O)c1ccc(Cl)cc1Cl` (configuration not stated), the TGI was > 100 µM.

`CC(C)CCCC(C)[C@H]1CCC2[C@H]3C(CC[C@@]21C)[C@@]1(C)CCC=C[C@]12C[C@@H]2[C@@H]3O` (some centres not stated): the TGI is > 100 µM.

In the case of `O=C(Nc1cc(Cl)ccc1Cl)C(=O)C(c1cnc2ccccc2n1)[N+](=O)[O-]` (configuration not stated), the TGI was > 100 µM.

Consider `COC(=O)CCC(=O)CC1CC(=O)C2CCCN12` (configuration not stated), for which the TGI was > 100 µM.

`CN[C@@H](C)[C@H](NC)c1ccccc1`: the TGI is > 100 µM.

In the case of `O=S1OC2(c3ccccc3-c3ccccc32)c2ccccc21` (configuration not stated), the TGI is > 100 µM.

Regarding `CCOC(=N)CC(=O)Nc1cccc(C)c1C`, the TGI was > 100 µM.
